According to patent US20060135773A1, “Trisubstituted nitrogen modulators of tyrosine phosphatases” (priority 2004, published 2006):
Read-outs that look alike come from different tables or passages of the source.

Legend:
PTP-1B = biological target: T1, PTP-1B (Homo sapiens, UniProt P18031); assay: pNPP tyrosine phosphatase inhibition assay, PTP-1B; format: biochemical
T1 construct: PTP-1B (purified, 1 mg/mL) as a 1:250 dilution
T1 sequence (P18031 1-321 limits assumed): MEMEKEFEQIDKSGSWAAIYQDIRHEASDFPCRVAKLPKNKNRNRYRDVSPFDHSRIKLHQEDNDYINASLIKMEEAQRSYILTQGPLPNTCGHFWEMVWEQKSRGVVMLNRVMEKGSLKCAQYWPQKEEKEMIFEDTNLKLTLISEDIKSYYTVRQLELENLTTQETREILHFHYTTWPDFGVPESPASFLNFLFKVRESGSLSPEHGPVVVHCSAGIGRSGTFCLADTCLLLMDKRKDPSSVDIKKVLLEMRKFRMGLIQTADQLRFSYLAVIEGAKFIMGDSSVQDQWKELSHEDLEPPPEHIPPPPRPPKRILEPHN
Procedure, shortened: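 Test compounds were screened at two final levels, 31.3 and 10 µM, against 4 µg/mL purified PTP-1B. The substrate was 10 mM p-nitrophenyl phosphate, with incubation for 10 min at 30°C before a K2CO3 quench. Activity was taken from A405.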

[1] = system: pIR (phosphorylated insulin receptor) in FAO cells; assay: IR phosphorylation assay in FAO cells (pIR ELISA / Western); format: cell-based, rat; conditions: 10 nM insulin and 10 μM compound
From the text: Antibodies and Chemicals. The antibody against phosphorylated insulin receptor (pIR) and the ELISA kit for detection of pIR were from Biosource (Camarillo, Calif.). Rabbit anti-IR/IGF-IR [pYpY1162/1163] phosphospecific antibody recognizes both the insulin receptor (IR) and the insulin-like growth factor-1 receptor (IGF-1R) phosphorylated at the active site tyrosine residues, 1162 and 1163 (1135 and 1136 for IGF-1R) (pIR/pIGF-1R). The Insulin Receptor [pYpY1162/1163] […] HRP-conjugated secondary antibodies were from Cell Signaling Technology (Beverly, Mass.). The ECL detection system was from Amersham (Buckinghamshire, UK), and human insulin was from Invitrogen (Carlsbad, Calif.).
Tissue Culture. FAO rat hepatoma cells were obtained from ECACC (#89042701) and maintained at 37° C. in a 5% CO2 environment in Dulbecco's modified Eagle's medium with high glucose (DMEM-high glucose) (4500 mg/liter) supplemented with 10% FBS and 50 units/ml penicillin, 100 μg/ml streptomycin and 0.292 mg/ml L-glutamine. For assays, cells were seeded in 24-well plates at a density of 2×10^5 cells/well and maintained until they reached confluency (about 3 days).
IR phosphorylation assays. Cells in 24-well plates were serum starved overnight in DMEM-low glucose (1000 mg/liter) without serum. […] The pIR/pIGF-1R signals were scanned (HP scanjet 3570c) and quantified (Scion Image). […]

[2] = pNPP assay, PTP-1B, read-out: Activity Class (IC50 ranges)

Compound | IC50 (PTP-1B; [2]) | melting point | IC50 (PTP-1B; in vitro activity of the prodrug, range as in Table 1, read-out: in vitro activity) | insulin-induced accumulation of pIR, % of 300 nM insulin pIR signal [1]
O=C(O)c1ccc(CN(Cc2ccc(C(F)(F)P(=O)(O)O)c(Br)c2)S(=O)(=O)c2ccccc2)cc1 [Compound 31, 4-({Benzenesulfonyl-[3-bromo-4-(difluoro-phosphono-methyl)-benzyl]-amino}-methyl)-benzoic acid] | 100 to 249 nM | 160 to 162 °C | – | –
O=P(O)(O)C(F)(F)c1ccc(CN(Cc2ccc(C(F)(F)P(=O)(O)O)cc2)S(=O)(=O)CCc2ccccc2)cc1 [Compound 9, [(4-{[[4-(Difluoro-phosphono-methyl)-benzyl]-(2-phenyl-ethanesulfonyl)-amino]-methyl}-phenyl)-difluoro-methyl]-phosphonic acid] | 250 to 499 nM | 181 to 183 °C | – | –
O=P(O)(O)C(F)(F)c1ccc(CN(Cc2ccc(C(F)(F)P(=O)(O)O)cc2)S(=O)(=O)c2ccccc2Cl)cc1 [Compound 5, {[4-({(2-Chloro-benzenesulfonyl)-[4-(difluoro-phosphono-methyl)-benzyl]-amino}-methyl)-phenyl]-difluoro-methyl}-phosphonic acid] | 100 to 249 nM | 170 to 172 °C | – | –
O=C(NCc1ccccc1)N(Cc1ccc(C(F)(F)P(=O)(O)O)cc1)Cc1ccc(C(F)(F)P(=O)(O)O)cc1 [Compound 13, [(4-{3-Benzyl-1-[4-(difluoro-phosphono-methyl)-benzyl]-ureidomethyl}-phenyl)-difluoro-methyl]-phosphonic acid] | > 25000 nM | 124 to 127 °C | – | –
COc1ccccc1S(=O)(=O)N(Cc1ccc(-c2cccc(C#N)c2)cc1)Cc1ccc(C(F)(F)P(=O)(O)OC(C)OC(=O)OC(C)C)c(Cl)c1 (stereo not drawn) [Compound 218, [(2-Chloro-4-{[(3′-cyano-biphenyl-4-ylmethyl)-(2-methoxy-benzenesulfonyl)-amino]-methyl}-phenyl)-difluoro-methyl]-phosphonic acid mono-(1-isopropoxycarbonyloxy-ethyl) ester] | 2500 to 25000 nM | – | 2500 to 25000 nM | about 80 % of 300 nM insulin pIR signal
O=C(c1ccccc1)N(Cc1ccc(C(F)(F)P(=O)(O)O)cc1)Cc1ccc(C(F)(F)P(=O)(O)O)cc1 [Compound 11, {[4-({Benzoyl-[4-(difluoro-phosphono-methyl)-benzyl]-amino}-methyl)-phenyl]-difluoro-methyl}-phosphonic acid] | 2500 to 25000 nM | 87 to 89 °C | – | –
COc1ccccc1S(=O)(=O)N(Cc1ccc(NC(=O)C(=O)O)cc1)Cc1ccc(NC(=O)C(=O)O)cc1 [Compound 57, N-[4-({(2-Methoxy-benzenesulfonyl)-[4-(oxalyl-amino)-benzyl]-amino}-methyl)-phenyl]-oxalamic acid] | > 25000 nM | 187 to 189 °C (dec.) | – | –
O=P(O)(O)C(F)(F)c1ccc(CN(Cc2ccc(-c3ccccc3)cc2)Cc2ccc(C(F)(F)P(=O)(O)O)cc2)cc1 [Compound 20, {[4-({Biphenyl-4-ylmethyl-[4-(difluoro-phosphono-methyl)-benzyl]-amino}-methyl)-phenyl]-difluoro-methyl}-phosphonic acid] | 2500 to 25000 nM | 125 to 128 °C | – | –
N#Cc1cccc(S(=O)(=O)N(Cc2ccc(C(F)(F)P(=O)(O)O)c(Cl)c2)Cc2ccccc2-c2ccccc2)c1 [Compound 216, [(4-{[Biphenyl-2-ylmethyl-(3-cyano-benzenesulfonyl)-amino]-methyl}-2-chloro-phenyl)-difluoro-methyl]-phosphonic acid] | 250 to 499 nM | – | – | –
CCNc1ccc(S(=O)(=O)C(F)(F)F)cc1NC(=O)C1CCN(S(=O)(=O)c2cccs2)CC1 [Compound 88, 1-(Thiophene-2-sulfonyl)-piperidine-4-carboxylic acid (2-ethylamino-5-trifluoromethanesulfonyl-phenyl)-amide] | > 25000 nM | – | – | –
CS(=O)(=O)c1cccc(-c2ccc(S(=O)(=O)N(Cc3ccc(C#N)cc3)Cc3ccc(C(F)(F)P(=O)(O)O)c(Cl)c3)cc2)c1 [Compound 144, [(2-Chloro-4-{[(4-cyano-benzyl)-(3′-methanesulfonyl-biphenyl-4-sulfonyl)-amino]-methyl}-phenyl)-difluoro-methyl]-phosphonic acid] | 250 to 499 nM | – | – | –
Cc1cc(C=C(C#N)C(=O)Nc2ccc3ccccc3c2)c(C)n1-c1ccc(C(=O)O)cc1 [Compound 58, 4-{3-[2-Cyano-2-(naphthalen-2-ylcarbamoyl)-vinyl]-2,5-dimethyl-pyrrol-1-yl}-benzoic acid] | > 25000 nM | – | – | –
O=P(O)(O)C(F)(F)c1ccc(CN(Cc2ccc(C(F)(F)P(=O)(O)O)cc2)S(=O)(=O)c2cccc(Oc3ccccc3)c2)cc1 [Compound 72, [(4-{[[4-(Difluoro-phosphono-methyl)-benzyl]-(3-phenoxy-benzenesulfonyl)-amino]-methyl}-phenyl)-difluoro-methyl]-phosphonic acid] | 250 to 499 nM | – | – | –
O=P(O)(O)C(F)(F)c1ccc(CN(Cc2ccc(C(F)(F)P(=O)(O)O)c(Br)c2)S(=O)(=O)c2ccccc2)cc1 [Compound 38, {[4-({Benzenesulfonyl-[4-(difluoro-phosphono-methyl)-benzyl]-amino}-methyl)-2-bromo-phenyl]-difluoro-methyl}-phosphonic acid] | < 99 nM | – | – | –
CN(Cc1ccc(C(F)(F)P(=O)(O)O)cc1)Cc1ccc(C(F)(F)P(=O)(O)O)cc1 [Compound 15, {[4-({[4-(Difluoro-phosphono-methyl)-benzyl]-methyl-amino}-methyl)-phenyl]-difluoro-methyl}-phosphonic acid] | > 25000 nM | 268 to 270 °C | – | –
3-{2-Bromo-4-[N-(4-cyanobenzyl)-N-(2-methoxy-benzenesulfonyl)aminomethyl]-phenoxy}-acetic acid [Compound 121] | > 25000 nM | – | – | –
COc1ccccc1S(=O)(=O)N(Cc1ccc(C#N)cc1)Cc1ccc(NC(=O)C(=O)O)cc1 [Compound 118, N-(4-(N-oxalylamino]benzyl)-N-(4-cyanobenzyl)-(2-methoxy)benzenesulfonamide] | > 25000 nM | – | – | –
COc1ccccc1S(=O)(=O)N(Cc1ccc(C(F)(F)P(=O)(O)O)c(Cl)c1)Cc1ccccc1OC(C)C [Compound 211, {[4-(difluorophosphonomethyl)-3-chlorophenyl]methyl}[(2-methoxyphenyl)sulfonyl]{[2-(methylethoxy)phenyl]methyl}amine] | 250 to 499 nM | – | – | –
[(2-Chloro-4-{[(4′-cyano-biphenyl-4-ylmethyl)-(2-methoxy-benzenesulfonyl)-amino]-methyl}-phenyl)-difluoro-methyl]-phosphonic acid [Compound 157] | 100 to 249 nM | – | – | –
O=C(OCc1ccccc1)N(Cc1ccc(C(F)(F)P(=O)(O)O)cc1)Cc1ccc(C(F)(F)P(=O)(O)O)cc1 [Compound 17, {[4-({Benzyloxycarbonyl-[4-(difluoro-phosphono-methyl)-benzyl]-amino}-methyl)-phenyl]-difluoro-methyl}-phosphonic acid] | 2500 to 25000 nM | 106 to 108 °C | – | –
COc1ccccc1S(=O)(=O)N(Cc1ccc(OCc2nnn[nH]2)cc1)Cc1ccc(OCc2nnn[nH]2)cc1 [Compound 138, 2-Methoxy-N,N-bis-[4-(1H-tetrazol-5-ylmethoxy)-benzyl]-benzenesulfonamide] | > 25000 nM | – | – | –
O=P(O)(O)C(F)(F)c1ccc(CN(Cc2ccc(C(F)(F)P(=O)(O)O)cc2)S(=O)(=O)c2cccc(-c3ccccc3)c2)cc1 [Compound 74, {[4-({(Biphenyl-3-sulfonyl)-[4-(difluoro-phosphono-methyl)-benzyl]-amino}-methyl)-phenyl]-difluoro-methyl}-phosphonic acid] | 250 to 499 nM | – | – | –
